Test results published in US12661373B2, “Electrochemically activated salt solution” (AZAD Pharma AG, priority 2018, dated 2026).

What was measured:
Assay type in all cases: cell-based
Conditions in all cases: ACV 100 μmol/l, MOI 0.01, titer 24 hpi
[1] = tested on: HSV-1 strain ANGpath; test: In vitro antiviral activity, treatment of Vero cells, plaque assay
Description: (§1) • A. Vero cells were seeded in 24-well plates and treated with dilutions of the ECAS 2 Dil.1:1 and Dil.1:2, either: • I. 24 hours before the infection; • II. 2 hours before the infection; • III. during the infection; • IV. 2 hours post infection; or • V. 6 hours post infection.
(§2) The cells were infected with the HSV-1 strains Kupka and ANGpath at a multiplicity of infection (MOI) of 0.01. The cells were collected 24 hours post infection (hpi) and the virus titer was determined by plaque assay. Briefly, the samples were serially diluted and plated onto one-day Vero cell-monolayers in 24- or 6-well tissue plates in duplicates. Afterwards, the cells were overlaid with 1% methylcellulose in normal growth media. 5 days post infection, the cells were fixed and stained with 2% crystal violet in 20% ethanol, and the individual plaques were counted to determine the virus titer in each sample. Samples without treatment (Mock, negative control) and samples treated with ACV (Acyclovir, 100 μmol/l, reference control) were handled in the same manner. The test was performed in two independent experiments, where each of the samples was tested in parallel wells. • B. The HSV-1 strains Kupka and ANGpath, were incubated at a MOI of 0.01 with dilutions of the ECAS 2 either Dil.1:1 or Dil.1:2, in a final volume of 100 μl for either: • I. 12 hours; • II. 8 hours; • III. 6 hours; or • IV. 2 hours.

[2] = tested on: HSV-1 strain Kupka; test: as above
Description: as §1, §2

[3] = tested on: HSV-1 strain ANGpath; test: In vitro antiviral activity, pre-incubation of virus before infection of Vero cells, plaque assay
Description: as §2
(§3) Then cells, which had been seeded in 24-well plates 24 hours before the infection, were infected with the above mentioned pre-incubated viruses. 24 hpi the cells were collected and the virus titer was determined by a plaque assay, as described above. Samples without treatment (Mock, negative control) and samples treated with Acyclovir (100 μmol/l as reference control) were handled in the same manner. The test was performed in two independent experiments, where each of the samples was tested in parallel wells.

[4] = tested on: HSV-1 strain Kupka; test: as above
Description: as §2, §3

[5] = cells treated 2 h before infection
[6] = cells treated 24 h before infection
[7] = virus incubated 2 h before infection
[8] = virus incubated 6 h before infection
[9] = virus incubated 8 h before infection
[10] = virus incubated 12 h before infection

## Nc1nc2c(ncn2COCCO)c(=O)[nH]1 [ACV, Acyclovir]
[1]; cells treated 2 hpi
  Reduction in viral titer: 2.81 log10
[1]; cells treated 6 hpi
  Reduction in viral titer: 2.38 log10
[1]; [5]
  Reduction in viral titer: 0.61 log10
[1]; [6]
  Reduction in viral titer: 0.54 log10
[1]; cells treated during infection
  Reduction in viral titer: 2.45 log10
[2]; cells treated 2 hpi
  Reduction in viral titer: 4.52 log10
[2]; cells treated 6 hpi
  Reduction in viral titer: 3.43 log10
[2]; [5]
  Reduction in viral titer: 1.96 log10
[2]; [6]
  Reduction in viral titer: 1.96 log10
[2]; cells treated during infection
  Reduction in viral titer: 3.69 log10
[3]; [7]
  Reduction in viral titer: 2.85 log10
[3]; [8]
  Reduction in viral titer: 2.59 log10
[3]; [9]
  Reduction in viral titer: 2.97 log10
[3]; [10]
  Reduction in viral titer: 2.56 log10
[4]; [7]
  Reduction in viral titer: 4.62 log10
[4]; [8]
  Reduction in viral titer: 3.55 log10
[4]; [9]
  Reduction in viral titer: 5.17 log10
[4]; [10]
  Reduction in viral titer: 3.15 log10
